Non-standard residues stand in square brackets, D forms with d. Residues, ends and D or L forms follow the SMILES beside them. *: point of attachment. DOTA = O=C(O)CN1CCN(CC(=O)O)CCN(CC(=O)*)CCN(CC(=O)O)CC1; Bpa = N[C@@H](Cc1ccc(C(=O)c2ccccc2)cc1)C(=O)O; Phe(4-Cl) = N[C@@H](Cc1ccc(Cl)cc1)C(=O)O; d2Nal = N[C@H](Cc1ccc2ccccc2c1)C(=O)O; azaGly = NNC(=O)O; Sar = CNCC(=O)O
Each compound was assayed on LHRH binding sites on human ovarian cancer cells (EFO-27). Conditions: not given.
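Note: Cell-associated radioactivity on confluent EFO-27 monolayers in 96-well plates, measured by microplate scintillation counting.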

| Compound | EC50 [µM] |
| --- | --- |
| CN(CC(=O)N[C@@H](Cc1c[nH]cn1)C(=O)N[C@@H](Cc1c[nH]c2ccccc12)C(=O)N[C@@H](CO)C(=O)N[C@@H](Cc1c[nH]cn1)C(=O)N[C@H](CCCNC(=N)N)C(=O)N[C@@H](Cc1c[nH]c2ccccc12)C(=O)N[C@@H](Cc1ccc(Oc2ccc(O)cc2)cc1)C(=O)N1CCC[C@H]1C(=O)NNC(N)=O)C(=O)CN1CCN(CC(=O)O)CCN(CC(=O)O)CCN(CC(=O)O)CC1 [BRU-2823] | 1.61 |
| CN(CC(=O)N[C@@H](Cc1c[nH]cn1)C(=O)N[C@@H](Cc1c[nH]c2ccccc12)C(=O)N[C@@H](CO)C(=O)N[C@@H](Cc1c[nH]cn1)C(=O)N[C@H](CCCNC(=N)N)C(=O)N[C@@H](Cc1c[nH]c2ccccc12)C(=O)N[C@@H](Cc1ccc(Cl)cc1)C(=O)N1CCC[C@H]1C(=O)NNC(N)=O)C(=O)CN1CCN(CC(=O)O)CCN(CC(=O)O)CCN(CC(=O)O)CC1 [BRU-2725] | 2.26 |
| N=C(N)NCCC[C@H](NC(=O)[C@@H](Cc1ccc2ccccc2c1)NC(=O)CN1CCN(CC(=O)O)CCN(CC(=O)O)CCN(CC(=O)O)CC1)C(=O)N[C@@H](Cc1c[nH]c2ccccc12)C(=O)N[C@@H](CO)C(=O)N[C@@H](Cc1c[nH]cn1)C(=O)N[C@H](CCCNC(=N)N)C(=O)N[C@@H](Cc1c[nH]c2ccccc12)C(=O)N[C@@H](Cc1ccc(C(=O)c2ccccc2)cc1)C(=O)N1CCC[C@H]1C(=O)NNC(=O)NCCCCN [compound 3019] | 0.9 |
| CC(=O)N[C@H](Cc1ccc2ccccc2c1)C(=O)N[C@@H](CCCNC(=N)N)C(=O)N[C@@H](Cc1c[nH]c2ccccc12)C(=O)N[C@@H](CO)C(=O)N[C@@H](Cc1c[nH]cn1)C(=O)N[C@H](CCCNC(=N)N)C(=O)N[C@@H](Cc1c[nH]c2ccccc12)C(=O)N[C@@H](Cc1ccc(C(=O)c2ccccc2)cc1)C(=O)N1CCC[C@H]1C(=O)NCCOCCNC(=O)CN1CCN(CC(=O)O)CCN(CC(=O)O)CCN(CC(=O)O)CC1 [BRU-2992] | 0.23 to 0.5 |
| CN(CC(=O)N[C@@H](Cc1c[nH]cn1)C(=O)N[C@@H](Cc1c[nH]c2ccccc12)C(=O)N[C@@H](CO)C(=O)N[C@@H](Cc1c[nH]cn1)C(=O)N[C@H](CCCNC(=N)N)C(=O)N[C@@H](Cc1c[nH]c2ccccc12)C(=O)N[C@H](C(=O)N1CCC[C@H]1C(=O)NNC(N)=O)C(c1ccccc1)c1ccccc1)C(=O)CN1CCN(CC(=O)O)CCN(CC(=O)O)CCN(CC(=O)O)CC1 [BRU-2721] | 4.55 |
| CN(CC(=O)N[C@@H](Cc1ccc(Cl)cc1)C(=O)N[C@@H](Cc1c[nH]c2ccccc12)C(=O)N[C@@H](CO)C(=O)N[C@@H](Cc1c[nH]cn1)C(=O)N[C@H](CCCNC(=N)N)C(=O)N[C@@H](Cc1c[nH]c2ccccc12)C(=O)N[C@@H](Cc1ccc(C(=O)c2ccccc2)cc1)C(=O)N1CCC[C@H]1C(=O)NNC(N)=O)C(=O)CN1CCN(CC(=O)O)CCN(CC(=O)O)CCN(CC(=O)O)CC1 [BRU-2719] ({DOTA}-[Sar][Phe(4-Cl)]WSH[dR]W[Bpa]P[azaGly]-NH2) | 0.63 |
| CN(CC(=O)N[C@@H](Cc1c[nH]cn1)C(=O)N[C@@H](Cc1c[nH]c2ccccc12)C(=O)N[C@@H](CO)C(=O)N[C@@H](Cc1c[nH]cn1)C(=O)N[C@H](CCCNC(=N)N)C(=O)N[C@@H](Cc1c[nH]c2ccccc12)C(=O)N[C@@H](Cc1c[nH]cn1)C(=O)N1CCC[C@H]1C(=O)NNC(N)=O)C(=O)CN1CCN(CC(=O)O)CCN(CC(=O)O)CCN(CC(=O)O)CC1 [BRU-2763] (HELM PEPTIDE1{[O=C(O)CN1CCN(CC(=O)O)CCN(CC(=O)[*:2])CCN(CC(=O)O)CC1].[Sar].H.W.S.H.[dR].W.H.P.[O=C(NN[*:1])[*:2]].[am]}$$$$V2.0) | 13.6 |
| CNCC(=O)N[C@@H](CCCNC(=N)N)C(=O)N[C@@H](Cc1c[nH]c2ccccc12)C(=O)N[C@@H](CO)C(=O)N[C@@H](Cc1c[nH]cn1)C(=O)N[C@H](CCCNC(=N)N)C(=O)N[C@@H](Cc1c[nH]c2ccccc12)C(=O)N[C@@H](Cc1ccc(C(=O)c2ccccc2)cc1)C(=O)N1CCC[C@H]1C(=O)NCCOCCNC(=O)CN1CCN(CC(=O)O)CCN(CC(=O)O)CCN(CC(=O)O)CC1 [BRU-3039] | 0.23 to 0.5 |
| CN(CC(=O)N[C@@H](Cc1c[nH]cn1)C(=O)N[C@@H](Cc1c[nH]c2ccccc12)C(=O)N[C@@H](CO)C(=O)N[C@@H](Cc1c[nH]cn1)C(=O)N[C@H](CCCNC(=N)N)C(=O)N[C@@H](Cc1c[nH]c2ccccc12)C(=O)N[C@H](C(=O)N1CCC[C@H]1C(=O)NNC(N)=O)C1Cc2ccccc2C1)C(=O)CN1CCN(CC(=O)O)CCN(CC(=O)O)CCN(CC(=O)O)CC1 [BRU-2765] | 8.71 |
| CC(=O)N[C@@H](Cc1ccc(CNC(=O)CN2CCN(CC(=O)O)CCN(CC(=O)O)CCN(CC(=O)O)CC2)cc1)C(=O)N[C@@H](Cc1c[nH]cn1)C(=O)N[C@@H](Cc1c[nH]c2ccccc12)C(=O)N[C@@H](CO)C(=O)N[C@@H](Cc1c[nH]cn1)C(=O)N[C@H](CCCNC(=N)N)C(=O)N[C@@H](Cc1c[nH]c2ccccc12)C(=O)N[C@@H](Cc1ccc(C(=O)c2ccccc2)cc1)C(=O)N1CCC[C@H]1C(=O)NNC(N)=O [BRU-2881] | 1.38 |
| N=C(N)NCCC[C@H](NC(=O)[C@H](N)Cc1ccc2ccccc2c1)C(=O)N[C@@H](Cc1c[nH]c2ccccc12)C(=O)N[C@@H](CO)C(=O)N[C@@H](Cc1c[nH]cn1)C(=O)N[C@H](CCCNC(=N)N)C(=O)N[C@@H](Cc1c[nH]c2ccccc12)C(=O)N[C@@H](Cc1ccc(C(=O)c2ccccc2)cc1)C(=O)N1CCC[C@H]1C(=O)NCCOCCNC(=O)CN1CCN(CC(=O)O)CCN(CC(=O)O)CCN(CC(=O)O)CC1 [BRU-2991] | ≤ 0.2 |
| N=C(N)NCCC[C@H](NC(=O)[C@H](N)Cc1ccc2ccccc2c1)C(=O)N[C@@H](Cc1c[nH]c2ccccc12)C(=O)N[C@@H](CO)C(=O)N[C@@H](Cc1c[nH]cn1)C(=O)N[C@H](CCCNC(=N)N)C(=O)N[C@@H](Cc1c[nH]c2ccccc12)C(=O)N[C@@H](Cc1ccc(C(=O)c2ccccc2)cc1)C(=O)N1CCC[C@H]1C(=O)NCCCCNC(=O)CN1CCN(CC(=O)O)CCN(CC(=O)O)CCN(CC(=O)O)CC1 [compound 3042] | 0.2 |
| N=C(N)NCCC[C@H](NC(=O)[C@H](N)Cc1ccc2ccccc2c1)C(=O)N[C@@H](Cc1c[nH]c2ccccc12)C(=O)N[C@@H](CO)C(=O)N[C@@H](Cc1c[nH]cn1)C(=O)N[C@H](CCCNC(=N)N)C(=O)N[C@@H](Cc1c[nH]c2ccccc12)C(=O)N[C@@H](Cc1ccc(C(=O)c2ccccc2)cc1)C(=O)N1CCC[C@H]1C(=O)NCC(=O)NCCCCNC(=O)CN1CCN(CC(=O)O)CCN(CC(=O)O)CCN(CC(=O)O)CC1 [BRU-2990] | > 30 |
| N=C(N)NCCC[C@H](NC(=O)[C@@H](Cc1ccc2ccccc2c1)NC(=O)CN1CCN(CC(=O)O)CCN(CC(=O)O)CCN(CC(=O)O)CC1)C(=O)N[C@@H](Cc1c[nH]c2ccccc12)C(=O)N[C@@H](CO)C(=O)N[C@@H](Cc1c[nH]cn1)C(=O)N[C@H](CCCNC(=N)N)C(=O)N[C@@H](Cc1c[nH]c2ccccc12)C(=O)N[C@@H](Cc1ccc(C(=O)c2ccccc2)cc1)C(=O)N1CCC[C@H]1C(=O)NNC(=O)NCCOCCN [compound 3022] | 0.71 |

Same assay, conditions: EFO-27 cells, competition with [125I-Tyr8]BRU-2477, 90 min

| Compound | EC50 [µM] |
| --- | --- |
| N=C(N)NCCC[C@H](NC(=O)[C@@H](Cc1ccc2ccccc2c1)NC(=O)CN1CCN(CC(=O)O)CCN(CC(=O)O)CCN(CC(=O)O)CC1)C(=O)N[C@@H](Cc1c[nH]c2ccccc12)C(=O)N[C@@H](CO)C(=O)N[C@@H](Cc1c[nH]cn1)C(=O)N[C@H](CCCNC(=N)N)C(=O)N[C@@H](Cc1c[nH]c2ccccc12)C(=O)N[C@@H](Cc1ccc(C(=O)c2ccccc2)cc1)C(=O)N1CCC[C@H]1C(=O)NCC(=O)NCCCCO [compound 2978] | 2 |
| C[C@@H](NC(=O)[C@H](Cc1c[nH]cn1)NC(=O)[C@H](CO)NC(=O)[C@H](Cc1c[nH]c2ccccc12)NC(=O)[C@H](Cc1c[nH]cn1)NC(=O)CN(C)C(=O)CN1CCN(CC(=O)O)CCN(CC(=O)O)CCN(CC(=O)O)CC1)C(=O)N[C@@H](Cc1c[nH]c2ccccc12)C(=O)N[C@@H](Cc1ccc(C(=O)c2ccccc2)cc1)C(=O)N1CCC[C@H]1C(=O)NNC(N)=O [compound 2672] ({DOTA}-[Sar]HWSH[dA]W[Bpa]P[azaGly]-NH2) | 14 |
| N=C(N)NCCC[C@H](NC(=O)[C@@H](Cc1ccc2ccccc2c1)NC(=O)CN1CCN(CC(=O)O)CCN(CC(=O)O)CCN(CC(=O)O)CC1)C(=O)N[C@@H](Cc1c[nH]c2ccccc12)C(=O)N[C@@H](CO)C(=O)N[C@@H](Cc1c[nH]cn1)C(=O)N[C@H](CCCNC(=N)N)C(=O)N[C@@H](Cc1c[nH]c2ccccc12)C(=O)N[C@@H](Cc1ccc(C(=O)c2ccccc2)cc1)C(=O)N1CCC[C@H]1C(=O)NCC(=O)N[C@@H](CCC(N)=O)C(N)=O [compound 2971] ({DOTA}-[d2Nal]RWSH[dR]W[Bpa]PGQ-NH2) | 0.49 |

Same assay, conditions: Table 5: modifications of amino acids at positions 1 and 2; in vitro binding on EFO-27 cells

| Compound | EC50 [µM] |
| --- | --- |
| CCN(CC(=O)N[C@@H](Cc1c[nH]cn1)C(=O)N[C@@H](Cc1c[nH]c2ccccc12)C(=O)N[C@@H](CO)C(=O)N[C@@H](Cc1c[nH]cn1)C(=O)N[C@H](CCCNC(=N)N)C(=O)N[C@@H](Cc1c[nH]c2ccccc12)C(=O)N[C@@H](Cc1ccc(C(=O)c2ccccc2)cc1)C(=O)N1CCC[C@H]1C(=O)NNC(N)=O)C(=O)CN1CCN(CC(=O)O)CCN(CC(=O)O)CCN(CC(=O)O)CC1 [BRU-2788] | 0.21 |
| CN(CC(=O)N[C@@H](Cc1cn(C)cn1)C(=O)N[C@@H](Cc1c[nH]c2ccccc12)C(=O)N[C@@H](CO)C(=O)N[C@@H](Cc1c[nH]cn1)C(=O)N[C@H](CCCNC(=N)N)C(=O)N[C@@H](Cc1c[nH]c2ccccc12)C(=O)N[C@@H](Cc1ccc(C(=O)c2ccccc2)cc1)C(=O)N1CCC[C@H]1C(=O)NNC(N)=O)C(=O)CN1CCN(CC(=O)O)CCN(CC(=O)O)CCN(CC(=O)O)CC1 [BRU-2741] | 2.99 |

Same assay, conditions: Table 19: analogs used in the stabilization studies

| Compound | EC50 [µM] |
| --- | --- |
| BRU-2994: DO3A10CM-Dnal2-R-W-S-H-r-W-Bpa4-Flp4-azaG | 0.6 |

Same assay, conditions: ratio of EC50 to BRU-2813 (EC50=0.33 μM)

| Compound | binding potency, times lower than BRU-2813 |
| --- | --- |
| N=C(N)NCCC[C@H](NC(=O)[C@@H](Cc1ccc2ccccc2c1)NC(=O)CN1CCN(CC(=O)O)CCN(CC(=O)O)CCN(CC(=O)O)CC1)C(=O)N[C@@H](Cc1c[nH]c2ccccc12)C(=O)N[C@@H](CO)C(=O)N[C@@H](Cc1c[nH]cn1)C(=O)N[C@H](CCCNC(=N)N)C(=O)N[C@@H](Cc1c[nH]c2ccccc12)C(=O)N[C@@H](Cc1ccc(C(=O)c2ccccc2)cc1)C(=O)N1C[C@H](c2ccccc2)C[C@H]1C(=O)NNC(N)=O [BRU-2953] | 2 |

Same assay, conditions: read-out: EC50 μM; Underivatized LHRH peptides and LHRH peptides with chelator on N-terminus; EFO-27 cells

| Compound | EC50 [µM] |
| --- | --- |
| BRU-2994: DO3A10CM-Dnal2-R-W-S-H-r-W-Bpa4-Flp4-azaG | 0.6 |

Source: patent US20120045393A1 (priority 2009, published 2012)
